# Tests used:
# Format in all cases: cell-based
# [1] = system: bacteria grown from soil sample extract; assay: Anti-microbial agent screening: soil-extract broth cultures treated with agent, then sub-cultured; conditions: confirmation on TSA plates
# Description: In anti-microbial agent screening studies, a soil sample was extracted with a 0.9% saline solution of sodium chloride (NaCl) and water (H2O) and a sample loop was used to transfer approximately 10 μL of extract to a test tube containing sterile Tryptic Soy Broth (TSB). […] The broth samples were then treated with anti-microbial agents at a known concentration. The treated broth samples were then sub-cultured in another sterile TSB, minimal media (MM) or spread on sterile Tryptic Soy Agar (TSA) plates. MM is a nutrient deficient growth medium where citric acid is the only carbon source and which is selective against many species of bacteria. Bacterial growth was confirmed by visible inspection of the secondary TSB, MM or TSA plate. The broth/plate samples were then evaluated for how long they remained free of bacterial growth. […] The column labeled Bacterial Confirmatory Analysis provides the subculture media used to confirm bacterial growth.
# bacteria of soil sample = assay: Culturing study: soil sample directly treated with anti-microbial agent, extract inoculated into sterile TSB; conditions: concentration not given
# Description: Additional culturing studies were carried out where a soil sample was directly treated with an anti-microbial agent. The exposure time of the soil sample to the anti-microbial was either 60 seconds or 24 hours. The extract was then sampled and used to inoculate a sterile TSB. The amount of time for bacterial growth to become visible was then noted.
# [2] = system: bacteria from saline extract of a soil sample; assay: Growth curve by UV-Vis absorbance at 600 nm of TSB inoculated with saline soil extract; conditions: TSB treated with 1.8% triclosan in 0.1 M NaOH or with bleach; room temperature, up to 80 days
# Description: FIG. 1 describes a growth curve constructed using UV-vis analysis of cultures taken from soil exposed to water, 0.1 M sodium hydroxide (NaOH), 1.81% triclosan and bleach.
# A final culturing study was conducted where a set of culture tubes containing sterile TSB were inoculated with a saline extract of a soil sample. One set of culture tubes contained only sterile TSB, a second set contained sterile TSB treated with 0.1 M NaOH, a third set contained sterile TSB treated with 1.8% triclosan in 0.1 M NaOH and a fourth set contained sterile TSB treated with bleach. The culture tubes were allowed to stand at room temperature for periods of up to 80 days. Growth was then monitored three times daily for up to 4 days by a single beam diode array UV-Vis Spectrophotometer in the 400 nm to 800 nm range. The absorbance of the samples at 600 nm was monitored over the course of the study.
molecule,measurement,setting,value
"CC(C)(C)CC(C)(C)c1ccc(OCCOCC[N+](C)(C)Cc2ccccc2)cc1 [Benzethonium chloride in water, Benzethonium chloride]",Effective Period (time sub-culture remained free of bacterial growth),[1]; agent at 1%,0 days
"[H]/N=C(\N/C(=N/[H])NCCCCCCNC(=N)NC(=N)Nc1ccc(Cl)cc1)Nc1ccc(Cl)cc1 [Chlorhexidine in water, Chlorhexidine]","Effective period (time for bacterial growth to become visible, cloudy)",bacteria of soil sample; soil exposure time 60 s,Cloudy after 8 days
same,"Effective period (time for bacterial growth to become visible, cloudy)",bacteria of soil sample; soil exposure time 24 hrs,Still clean after 36 days
same,Effective Period (time sub-culture remained free of bacterial growth),[1]; agent at 14%,0 days
"O=S(=O)([O-])[O-].[Cu+2] [Copper Sulfate in water, Copper Sulfate]",Effective Period (time sub-culture remained free of bacterial growth),[1]; agent at 5%,0 days
"Oc1cc(Cl)ccc1Oc1ccc(Cl)cc1Cl [triclosan, 2,4,4′-trichloro-2′-hydroxydiphenyl ether]",Bacterial growth by sample absorbance at 600 nm (FIG. 1),[2],prevent bacterial growth
Benzalkonium chloride [Benzalkonium chloride in water],Effective Period (time sub-culture remained free of bacterial growth),[1]; agent at 1%,0 days

# — US20130324615A1, “BIODEGREDATION SUPPRESSION SOLUTION FOR FORENSIC SAMPLES” (Indiana University Research and Technology Corporation, priority 2011, published 2013)
